Experimental data taken from patent US5928645A, “Extracted substance having anti-HIV activity” (Young Bok Han & Korean Assoc. of Creation Research, priority 1992, dated 1999).
Read-outs that look alike come from different tables or passages of the source.

What was measured:
[1] = system: HIV-infected cells (T cell line SupT1); test: Syncytium-formation assay (number of multinucleate cells); format: cell-based; conditions: three-day incubation
Method: To evaluate toxicity of the extracted substances on a T cell line (SupT1), maximum acceptable concentrations of antiviral agents were determined as follows:
After incubation, the cells were treated with trypan blue. The number of cells that excluded the dye was counted using a hemocytometer. "TCID50 " is defined as the 50% tissue culture-infective dose. (Reference: Techniques in HIV research, ed. Aldovini, A., and Walter, B. D., Stockton Press, N.Y. Unitd States, Chapter 4. Quantitative assay for virus infectivity, pp. 71-73, 1990.) The 50% tissue culture-infective dose (TCID50) is calculated using the method of Reed and Muench (Dulbecco, R., "Endpoint Method-Measurement of the infectious titer of a viral sample" in the chapter entitled: The Nature of Viruses in Virology, Second Edition, J. P. Lippincott, Philadelphia, pp. 22-25, 1988). This method is applicable for measuring the infectious titer of a viral sample from an assay involving a series of progressive dilutions of virus. To generate the 50% endpoint dilution, an empirical pooling of the results is done after reading the plate for visible infection at all of the dilutions tested. In cell cultures, the tissue culture infective dose (TCID50) is the dilution of virus suspension that infects 50% of the cell cultures as measured by visible CPE.
After a three-day incubation the number of multinucleate cells in each culture were counted. As comparative tests, similar experiments were performed using AZT or berberine, rather than the extract of the present invention, to treat the cells.

reverse transcriptase = test: Reverse transcriptase activity of HIV-infected H9 cells; format: cell-based; conditions: 0.5 μg/ml
Method: The effect of the extract of the present invention on reverse transcriptase activity and on viral replication was also measured in H9 host cells. HIV infected H9 cells were cultured in RPMI 1640 supplemented with 10% (v/v) of heat-inactivated fetal calf serum and 1% (v/v) […] Every third day 1/4 of the cultures were transferred to new media containing the same concentration of the extract. The cultures were harvested after 9 days and centrifuged for 3 minutes in an Eppendorf centrifuge. 600 μl of supernatant was mixed 300 μl of 30% polyethylene glycol (PEG) and then centrifuged for 10 minutes. The pellet was resuspended in RT suspension buffer (50 mM Tris, pH 7.5, 1 mM DTT, 20% glycerol, 0.25% Triton X-100). These virus samples were frozen at -70° C. until assayed. Aliquots of virus (10 μl) were incubated with 20 μl of a cocktail containing 50 mM Tris, pH 7.5, 5 mM DTT, 5 mM MgCl2, 150 mM KCl, 0.05% Triton X-100, 0.3 mM glutathione, 0.5 mM EGTA, 50 μg/ml poly(rA)dT, 10μ Ci thymidine triphosphate, and 17.25 μl distilled water for 1 hour at 37° C. […] Precipitates were collected on Whatman GF/C glass fibers, washed several times with ice-cold 5% TCA and once with 70% ethanol, air dried and counted in a liquid scintillation counter.

[2] = system: ABEI-microperoxidase-H2 O2 system; test: Antioxidant activity by chemiluminescence (inhibition of light intensity); format: biochemical
Excerpt: Therefore, we characterized the extract of the present invention with respect to its ability to function as an antioxidant. We compared the extract to the known antioxidant t-butylhydroxy toluene (BHT) using a chemiluminescence assay developed in this laboratory. […] Therefore, it is proposed that the extract has anti-HIV effect.
Materials: microperoxidase (MP, Sigma Chemical Company, St. Louis, Mo., U.S.A.), aminobuty ethylisoluminol (ABEI, Sigma Chemical Company, St. Louis, Mo., U.S.A.), t-butylhydroxy toluene (BHT, Sigma Chemical Company, St. Louis, Mo., U.S.A.).
An ABEI-microperoxidase-H2 O2 system was used to assay the antioxidant activity of the extract of the present invention and also that of the known antioxidant BHT. The activity of berberine as an antioxidant was also assessed.
ABEI was used at 0.18 μM. Compounds being assayed were used at 10 mg/ml as a maximum concentration and also at serial dilutions. 200 μL of ABEI, t-butylhydroxy toluene (BHT), pure berberine or the extracted substance at 10 mg/ml (or a serial dilution thereof) were put in a polystyrene tube suitable for use in a Berthold 9502 luminometer. Hydrogen peroxide (0.35%) and microperoxidase (0.01 mg/ml) were autoinjected into the tube to start the chemiluminescence reaction. Chemiluminescence from the reaction was measured for 2 seconds using a Berthold Luminometer 9502 (Clilumat). In control samples distilled water and ethyl alcohol were used. The antioxidant activity of the extract was compared with commercial antioxidant BHT. The antioxidant activity of BHT has been studied for many years (Branen, A. L.; Toxicological and biochemistry of butylated hydrosyanisole and butylated hydroxytoluene. J. Am. Oil Chem. Soc. 52:59, 1975). BHT removes free radicals in oxidation reactions, and it inhibits oxidation of materials.
An antioxidant present in the sample will prevent ABEI from being oxidized by microperoxidase, thus inhibiting chemiluminescence. Antioxidant activity was calculated from the chemiluminescence intensity using the following expression: [formula]

[3] = system: HIV reverse transcriptase; conditions: cited from earlier work
HIV = conditions: Tan et al. 1992; cited from earlier work
[4] = with respect to the template-primer complex, (rA)n, (dT)
[5] = with respect to the triphosphate substrate, dTTP

## Cc1cn([C@H]2C[C@H](N=[N+]=[N-])[C@@H](CO)O2)c(=O)[nH]c1=O [AZT, azidothymidine]
[1]; 0.2 μg/mL
  No. of Multiple-Nucleate Cells: 0
[1]; 0.5 μg/mL
  No. of Multiple-Nucleate Cells: 1
[1]; 1 μg/mL
  No. of Multiple-Nucleate Cells: 0
[1]; 5 μg/mL
  No. of Multiple-Nucleate Cells: 0

## COc1ccc2cc3[n+](cc2c1OC)CCc1cc2c(cc1-3)OCO2 [Berberine, berberine]
Reverse transcriptase
  inhibition of viral RT activity: marked inhibitory effect on RT activity
[2]; 0.63 mg/ml
  Percentage of inhibition of light intensity: 11%
[2]; 1.25 mg/ml
  Percentage of inhibition of light intensity: 12%
[2]; 2.5 mg/ml
  Percentage of inhibition of light intensity: 12%
[2]; 5.0 mg/ml
  Percentage of inhibition of light intensity: 21%
[2]; 10.0 mg/ml
  Percentage of inhibition of light intensity: 57%
[2]; 0.63-10.0 mg/ml
  antioxidant activity compared with the total extract: much lower
[1]; 0.1 μg/mL
  No. of Multiple-Nucleate Cells: 8
[1]; 0.5 μg/mL
  No. of Multiple-Nucleate Cells: 5
[1]; 1 μg/mL
  No. of Multiple-Nucleate Cells: 2
[1]; 3 μg/mL
  No. of Multiple-Nucleate Cells: 1

## O=c1cc(-c2ccccc2)oc2cc(O)c(O)c(O)c12 [baicalein]
[3]; [4]
  mode of inhibition: partially competitive
[3]; [5]
  mode of inhibition: noncompetitive

## COc1ccc2cc3[n+](cc2c1OC)CCc1cc2c(cc1-3)OCO2 [berberine chloride]
HIV
  order of anti-HIV effect: jatrorrhizine chloride>berberine chloride>coptisine chloride

## c1c2c(cc3c1OCO3)-c1cc3ccc4c(c3c[n+]1CC2)OCO4 [coptisine chloride]
HIV
  order of anti-HIV effect: jatrorrhizine chloride>berberine chloride>coptisine chloride

## COc1cc2c(cc1O)CC[n+]1cc3c(OC)c(OC)ccc3cc1-2 [jatrorrhizine chloride]
HIV
  order of anti-HIV effect: jatrorrhizine chloride>berberine chloride>coptisine chloride

## O=c1c(O)c(-c2ccc(O)c(O)c2)oc2cc(O)c(O)c(O)c12 [quercetagetin]
[3]; [4]
  mode of inhibition: partially competitive
[3]; [5]
  mode of inhibition: noncompetitive

## O=c1c(O)c(-c2ccc(O)c(O)c2)oc2cc(O)cc(O)c12 [quercetin]
[3]; [4]
  mode of inhibition: partially competitive
[3]; [5]
  mode of inhibition: noncompetitive
